Data from patent US9845292B2 (Max-Planck-Gesellschaft zur Förderung der Wissenschaften …, priority 2013, dated 2017).
Entries after “also recorded” stand apart in the source; their conditions may differ.

Tests used:
C57Bl/6N mice = assay: Forced swim test (FST); assay type: in vivo; settings: FIG. 2D
Protocol: For the forced swim test (FST), male C57Bl/6N mice at the age of 12 weeks were single housed and acclimated to the room for 2 weeks before the experiment. […] The next morning, mice were subjected to a FST to assess stress-coping behavior. Each mouse was put into a 2 l glass beaker for 6 min and analyzed using an automated video-tracking system (Anymaze 4.20, Stoelting, Ill., USA). Time spent immobile (floating) and time spent struggling was scored by an experienced observer, blind to treatment or condition of the animals.

N2a neuroblastoma cells = assay: N2a cellular assay (neurite outgrowth); assay type: cell-based
Protocol: At day one N2a cells were plated into 24-well plates with cover slips (pretreated with polylysine) at a density of 35,000 cells/well and cultured with DMEM (incl. FCS 10% and Pen/Strep 1%) for 24 h. Next, cells were transfected with 80 ng expression plasmids encoding Venus as well as 720 ng pRK5 (mock transfection) in a total volume of 500 μl starvation media containing different concentrations of compounds or DMSO for 36 h (media without FCS; induction of neurite outgrowth). Therefore media was removed and replaced by 400 μl DMEM (empty). Next an equivalent volume of plasmids were given to 50 μl OPTIMEM and incubated for 5 min at RT. Additionally 1.5 μl Lipofectamine 2000 was separately dissolved in 50 μl OPTIMEM. After 5 min both solutions (plasmids and Lipofactamine 2000 containing media) were combined and incubated again for another 20 min. After that 100 μl of this mixture was given to 400 μl media per well. (See also protocol of the provider—Life Technologies).
On the next day cells were washed with PBS and incubated for 30 min with 300 μl PFA (4%) and sucrose (5%) to fix cells. After fixation cells were washed three times, mounted onto microscope slides using 4 μl Vectashield (mounting media) and analyzed by fluorescence microscopy. Each bar represents the mean of the neurite length of 30-50 cells after the indicated treatment (FIGS. 1-2).

C57BL/6 mice = assay: Combined Dex/CRH test (neuroendocrine analysis, plasma CORT); assay type: in vivo; settings: 20 mg/kg i.p.; FIG. 2E
Protocol: Briefly, a reference blood sample was collected by an incision in the ventral tail vessel at 1500, three days prior to the actual test (‘untreated’ value). […] The injected volume was 0.3 ml for each injection. At 1500, a second blood sample was drawn from the tail vessel (‘after Dex’ value), immediately followed by an i.p. injection of CRH (0.15 mg/kg). Thirty minutes later, the mice were sacrificed and trunk blood was collected (‘after CRH’ value).

FKBP51 = target: T1, FKBP51 (Homo sapiens, UniProt Q13451); assay: Fluorescence polarization binding assay, FK1-domain of FKBP51WT with tracer F4; set-up: Purified FK1-domains of FKBP51WT (4.5 nM) with F4 (3 nM), FKBP52WT (400 nM) with F2 (20 nM); implied by Ni-NTA purification) (N); made in house; host or cells: E. coli BL21(DE3)pLysS; settings: compounds B01-C25; read-out: Affinity(Ki) for FKBP51
T1 sequence (Q13451 42-130 limits assumed): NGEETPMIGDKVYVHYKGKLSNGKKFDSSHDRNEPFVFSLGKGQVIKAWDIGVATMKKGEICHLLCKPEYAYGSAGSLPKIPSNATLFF
Protocol: The target protein was also diluted in this assay buffer at double the highest concentration required for the final sample. This protein stock was used for a 1:1 serial dilution.
The inventive compound was dissolved in DMSO to reach a 100-times concentrated stock solution. This was used for a 1:1 serial dilution in DMSO.
For FKBP12, −51, and −52 the binding assays were performed in duplicates in the plate format.
The competition curves were analyzed by using SigmaPlot9. Data were fitted to a four parameter logistic curve to deduce the IC50 values. […]
Inhibition constants were measured in a fluorescence polarization binding assay by titrating the compounds.

FKBP52 = target: T2, FKBP52 (Homo sapiens, UniProt Q02790); assay: Fluorescence polarization binding assay, FK1-domain of FKBP52WT with tracer F2 (selectivity FKBP51 vs. FKBP52); settings: selectivity factor over FKBP52; compounds B01-C25
T2 construct: Purified FK1-domains of FKBP51WT (4.5 nM) with F4 (3 nM), FKBP52WT (400 nM) with F2 (20 nM); implied by Ni-NTA purification) (N); made in house; host or cells: E. coli BL21(DE3)pLysS
T2 sequence (Q02790 50-138 limits assumed): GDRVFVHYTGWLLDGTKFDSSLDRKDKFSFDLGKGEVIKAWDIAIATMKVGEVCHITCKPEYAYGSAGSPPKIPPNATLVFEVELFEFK
In short: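 Compounds titrated against FK1 domain of FKBP52 WT with fluorescent tracer F2, in duplicate; competition curves fitted to four-parameter logistic for IC50. Ki derived from exact competitive-binding equation using tracer Kd; selectivity expressed as Ki(FKBP51)/Ki(FKBP52).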

| Compound | floating time in forced swim test (C57Bl/6N mice; 20.0 mg/kg) | struggling time in forced swim test (C57Bl/6N mice; 20.0 mg/kg) | stress-coping behavior in the Forced Swim Test (C57Bl/6N mice; single injection 20.0 mg/kg, 16 hours prior to testing) | effect of high concentrations on neuronal differentiation (N2a neuroblastoma cells; FIG. 1A, 1D) | enhancement of neurite outgrowth of N2a cells (N2a neuroblastoma cells; compared to unselective FKBP ligand FK506, FIG. 1) | regulation of stress hormone secretion (C57BL/6 mice) | Ki (FKBP51) [µM] | Ki(FKBP51)/Ki(FKBP52) (FKBP52) |
| --- | --- | --- | --- | --- | --- | --- | --- | --- |
| COc1ccc(CC[C@@H](OC(=O)[C@@H]2CCCCN2C(=O)[C@H](c2cc(OC)c(OC)c(OC)c2)C2CCCCC2)c2cccc(OCCN3CCOCC3)c2)cc1OC [Compound A18] | reduced floating time | enhanced struggling time | elicited a more active stress-coping behavior | do not lead to reduction of the neuronal differentiation | stronger enhancement of neurite outgrowth; also recorded: promote neurite outgrowth in N2a cells more potently compared to FK506 | enhances the regulation of stress hormone secretion | – | – |
| COc1cc([C@@H](C(=O)N2CCCC[C@H]2C(=O)OCCCO)C2CCCCC2)cc(OC)c1OC [Compound C22] | – | – | – | – | – | – | 1 to 10 | +++ (>500 +++) |
| COc1cc([C@@H](C(=O)N2CCCC[C@H]2C(=O)OC(C)CO)C2CCCCC2)cc(OC)c1OC (stereo partly shown) [Compound C25] | – | – | – | – | – | – | 1 to 10 | ++ (>50 ++) |
